Laboratory results taken from patent publication US20050220779A1, “Integrin linked kinase modulation of macrophage activation” (priority 2001, published 2005).

Tests used:
[1] = test system: IL-6 release in macrophages; experiment: LPS-IFN-γ-induced IL-6 release in macrophages (ELISA); type: cell-based, murine
Method: (§1) Treatment of primary macrophages and RAW 264.7 cells. Primary macrophages (1.5×10^5 cells/well) and RAW 264.7 (4×10^4 cells/well) cells were grown in 96-well plates (nitrite assay), or 6-well plates (2×10^6 cells/well) for measurement of iNOS and COX-2 expression. Following 3 h incubation, at 37 C, 5% CO2 (macrophages were allowed to attach) cells were stimulated with LPS (0.5 μg/ml) and IFN-γ (100 U/ml) in the absence or presence of various concentrations of ILK inhibitors (all treatments were replicated six times). Cells were incubated for an additional 24 h, and cell free culture supernatants from each well were collected for NO and cytokine determination. The remaining cells were stained with crystal violet to determine effect of the inhibitors on cell survival.
Enzyme immunoassays for mouse IL-6. IL-6 levels were determined with PharMingen's OptElA ELISA set developed using an anti-mouse IL-6 Ab pair and mouse rIL-6 standard (PharMingen). Maxisorp F16 multiwell strips (Nunc, Roskilde, Denmark) were coated with anti-mouse IL-6 capture Ab (at recommended concentration) in 0.1 M NaHCO3, pH 9.5, 100 μl/well, overnight at 4° C. Plates were washed three times with 0.05% Tween 20 in PBS (PBST) and blocked for 1 h at room temperature with 200 μl/well of 10% FCS in PBS (blocking and dilution buffer). […] Absorbance was read at 450 nm with an EL 312e microplate reader. […]

RAW 264.7 cells [2] = experiment: Cell survival by crystal violet staining, RAW 264.7 cells; type: cell-based
Method: as §1
Effect of ILK Inhibitors on suppression of NO production and cell survival. Twenty-four hours following treatment with the ILK inhibitors, aliquots from the cell-free supernatants were assayed for NO and IL-6 release. Surviving cells were stained and fixed (crystal violet 0.05% in 20% ethanol), to determine if the decrease in NO production was related to a decrease in cell number due to toxicity of the compounds. […] Only those compounds that induced strong inhibition of NO release, and caused no significant cell death were selected for further evaluation.

[3] = test system: C57BL/6 cells (primary peritoneal macrophages); experiment: Cell survival by crystal violet staining, C57BL/6 cells; type: cell-based
Method: as §1, with “Primary macrophages (1.5×10^5 cells/well) and RAW 264.7 (4×10^4 cells/well) cells were grown in 96-well plates (nitrite assay), or 6-well plates (2×10^6 cells/well) for measurement of iNOS and COX-2 expression.” left out
(§2) Effect of ILK Inhibitors on suppression of NO production and cell survival. Twenty-four hours following treatment with the ILK inhibitors, aliquots from the cell-free supernatants were assayed for NO and IL-6 release. Surviving cells were stained and fixed (crystal violet 0.05% in 20% ethanol), to determine if the decrease in NO production was related to a decrease in cell number due to toxicity of the compounds.

[4] = test system: BALB/c cells (primary peritoneal macrophages); experiment: LPS-IFN-γ-induced macrophage NO production (Griess nitrite assay), BALB/c cells; type: cell-based, mouse
Method: (§3) Isolation of primary mouse macrophages. Peritoneal exudate macrophages were isolated by peritoneal lavage with ice-cold sterile physiological saline 24 h after intraperitoneal injection of BALB/c and CB57BL/6 mice with 0.3 ml of sterile Zymosan A (1 mg/0.5 ml 0.9% saline). Cells were washed, resuspended in RPMI 1640 supplemented with 2 mM L-glutamine, 100 units/ml penicillin, 100 μg/ml streptomycin, and 5% FBS.
as §1
(§4) NO production. Following stimulation, the production of NO was determined by assaying culture supernatants for NO2^−, a stable reaction product of NO with molecular oxygen. Briefly, 100 μl of culture supernatant was reacted with an equal volume of Griess reagent at room temperature for 10 min. The absorbance at 550 nm was determined. All measurements were performed six times. The concentration of NO2^−was calculated by comparison with a standard curve prepared using NaNO2.
(§5) Effects of ILK inhibitors on LPS-IFN-γ-induced NO release. […] […] To compare the effect of the compounds across three different cell types, the NO release for each cell type was expressed relative to DMSO treated cells. […] For example, macrophages from Balb/c and C57BL/6 mice responded similarly to the treatment with the compounds.

RAW 264.7 cells [5] = experiment: LPS-IFN-γ-induced macrophage NO production (Griess nitrite assay), RAW 264.7 cells; type: cell-based, murine
Method: RAW 264.7 cells. RAW 264.7 cells, a murine macrophage cell line, were obtained from American Type Culture Collection (ATCC, Manassas, Va.) and cultured in DMEM supplemented with 10% FCS. Each treatment was performed in triplicate wells. RAW 264.7 cells (Balb/c background) produce a significant amount of nitric oxide upon treatment with IFN-γ alone, but require LPS for full activation. This property makes their behavior more like that of normal macrophages obtained from commonly used strains of mice.
as §1, with “Primary macrophages (1.5×10^5 cells/well) and RAW 264.7 (4×10^4 cells/well) cells were grown in 96-well plates (nitrite assay), or 6-well plates (2×10^6 cells/well) for measurement of iNOS and COX-2 expression.” left out
as §4
Effects of ILK inhibitors on LPS-IFN-γ-induced NO release. […] […] To compare the effect of the compounds across three different cell types, the NO release for each cell type was expressed relative to DMSO treated cells.

[6] = test system: BALB/c cells (primary peritoneal macrophages); experiment: Cell survival by crystal violet staining, BALB/c cells; type: cell-based; settings: BALB/c cells
Method: as §1, with “Primary macrophages (1.5×10^5 cells/well) and RAW 264.7 (4×10^4 cells/well) cells were grown in 96-well plates (nitrite assay), or 6-well plates (2×10^6 cells/well) for measurement of iNOS and COX-2 expression.” left out
as §2

[7] = test system: C57BL/6 cells (primary peritoneal macrophages); experiment: LPS-IFN-γ-induced macrophage NO production (Griess nitrite assay), C57BL/6 cells; type: cell-based, mouse
Method: as §3, §1, §4, §5

HUVEC cells = experiment: In vitro Matrigel morphogenesis (tube formation) assay of VEGF stimulated HUVEC cells; type: cell-based, human; settings: 100 mM (so in the source)
Method: In Vitro Angiogenesis. […] After 5 hours of incubation in a 5% CO2-humidified atmosphere at 37 °C, the three-dimensional organization of the cells was examined using an inverted photomicroscope. The cells were fixed with Crystal Violet (0.05% in 20% ethanol) and digitally photographed.
To determine the anti-angiogenic properties of ILK inhibitors, an in vitro Matrigel morphogenesis assay was established. This assay evaluates the ability of endothelial cells to differentiate into capillary-like structures, a crucial step during neovascularization. HUVEC cells when stimulated with VEGF and seeded onto Matrigel rapidly attach to the matrix and begin to migrate and interact with the extracellular matrix proteins present in the Matrigel. […] These capillary-like structures can be assessed by histology (FIG. 2). Samples are cut on a cross section and subsequent viewed using an electron microscope. Typically, cylindrical formations with a lumen are observed. A distinct difference in the morphology of tube formation on Matrigel, compared to other in vitro angiogenesis assays is a reduction in the proliferation of endothelial cells. […] Using this model system, both inhibitors and stimulators of angiogenesis can be assessed prior to in vivo testing.
The assay was established and reproducibility confirmed. SU5416, shown to inhibit angiogenesis in other assays, was also evaluated. […]

iNOS = iNOS protein expression in LPS-IFN-γ stimulated macrophages (western blot); type: cell-based, murine; settings: Macrophages, LPS-INF-γ stimulated
Method: (§6) Western blot analysis. After incubation with the indicated stimuli in the presence of ILK inhibitors, cells (duplicate samples, 2×10^6cell/6-wells plate) were washed in PBS and lysed on ice in 60 μl of lysis buffer. The protein content of each sample was determined using the Bradford protein assay kit (Bio-Rad, Richmond, Calif.). Absorbance was measured at 750 nm with a Beckman DU530 spectrophotometer (Palo Alto, Calif.). Proteins were mixed with […] sample buffer. Following separation of proteins by SDS-PAGE, using 8% bis-acrylamide in the separation gel, the proteins were transferred from the gels onto PVDF membranes using a MiniProtean III Cell (Bio-Rad), at 100 V for 1.5 h. Equal amounts of protein (5 μg) were loaded onto SDS-PAGE gels and examined by Western blot analysis with anti-Actin, anti-iNOS, anti-COX-2 murine monoclonal antibodies according to the manufacturers specifications (Transduction Laboratories). Primary Abs, in 5% blocking buffer (5% NFM/TTBS), were incubated with blots 2 h or overnight at 4° C., followed by incubation with peroxidase-conjugated secondary antibody. Chemiluminescence substrates were used to reveal positive bands. The bands were exposed on x-ray films. […] The Multi-Analyst/PC system from Biorad is being used to quantitate the bands of the expressed protein on the film. […] White light is chosen as the selected light source, thus the signal strength is measured in OD (optic density) units. […]
(§7) Effects of ILK inhibitors on the LPS-IFN-γ-induced iNOS and COX-2 expression NO production requires that iNOS be enzymatically activity, therefore experiments were performed to examine whether the inhibitory effect of ILK inhibitors was mediated by […] iNOS protein synthesis or effects on the activity of existing enzyme. Stimulated cells were treated with ILK inhibitors (25 μM), and lysed 16 h later and a western blot analysis was performed to quantitate iNOS protein expression. […]

COX-2 = COX-2 protein expression in LPS-IFN-γ stimulated macrophages (western blot); type: cell-based, murine; settings: Macrophages, LPS-INF-γ stimulated
Method: as §6, with “Laboratories).” for “Laboratories). Primary Abs, in 5% blocking buffer (5% NFM/TTBS), were incubated with blots 2 h or overnight at 4° C., followed by incubation with peroxidase-conjugated secondary antibody. Chemiluminescence substrates were used to reveal positive bands. The bands were exposed on x-ray films.”
as §7
Nitric oxide and Prostaglandin E2 are two pleiotropic mediators produced at inflammatory sites by the inducible enzymes iNOS and cyclooxygenase-2 (COX-2), respectively. […] Finally, we evaluated the in-vitro effects of compounds on production of MCP-1 chemokine by TNF-α stimulated HUVEC cells. […]

[8] = test system: LPS-IFN-γ stimulated macrophages; experiment: NO production of LPS-IFN-γ stimulated macrophages (cell type not specified; dose response, Table 2 and second Table 3); type: cell-based, murine; settings: LPS-INF-γ stimulated
Method: as §1, with “Primary macrophages (1.5×10^5 cells/well) and RAW 264.7 (4×10^4 cells/well) cells were grown in 96-well plates (nitrite assay), or 6-well plates (2×10^6 cells/well) for measurement of iNOS and COX-2 expression.” left out
as §4

SMILES | Survival (%) (RAW 264.7 cells [2]; 0.5 mM) | Survival (%) (RAW 264.7 cells [2]; 1 mM) | Survival (%) ([3]; 0.5 mM) | Survival (%) ([3]; 1 mM) | NO inhibition (%) ([4]; 0.5 mM) | NO release (%) ([4]; 0.5 mM) | NO inhibition (%) ([4]; 1 mM) | NO release (%) ([4]; 1 mM) | NO inhibition (%) (RAW 264.7 cells [5]; 0.5 mM) | NO release (%) (RAW 264.7 cells [5]; 0.5 mM) | NO inhibition (%) (RAW 264.7 cells [5]; 1 mM) | NO release (%) (RAW 264.7 cells [5]; 1 mM) | Survival (%) ([6]; 0.5 mM) | Survival (%) ([6]; 1 mM) | NO inhibition (%) ([7]; 0.5 mM) | NO release (%) ([7]; 0.5 mM) | NO inhibition (%) ([7]; 1 mM) | NO release (%) ([7]; 1 mM) | further results
C[C@]12CCC(=O)C=C1CC[C@@H]1[C@@H]2[C@@H](O)C[C@@]2(C)[C@H]1CC[C@]2(O)C(=O)CO [hydrocortisone, Hydrocortisone, reference compound] |  |  |  |  |  |  |  |  |  |  |  |  |  |  |  |  |  |  | Effect on IL-6 release (in words) ([1]; 50 μM, added at the onset of the culture): moderately suppressed IL-6 release
CNC(=N)NCCC[C@H](N)C(=O)O [L-NMMA, N^G-Monomethyl-L-arginine] | 92 | 86 | 97 | 99 | 92 | 7.9 | 97 | 3.1 | 52 | 44.2 | 63 | 31.7 | 97 | 94 | 92 | 8.3 | 99 | 1.1 | 
Cc1cc(C)c(/C=C2\C(=O)Nc3ccccc32)[nH]1 [SU5146, reference compound] |  |  |  |  |  |  |  |  |  |  |  |  |  |  |  |  |  |  | Effect on endothelial cell morphogenesis (in words) (HUVEC cells): did not affect endothelial cell morphogenesis
C[C@@H]1C[C@H]2[C@@H]3CCC4=CC(=O)C=C[C@]4(C)[C@@]3(F)[C@@H](O)C[C@]2(C)[C@@]1(O)C(=O)CO [Dex, Dexamethasone] | 98 | 80 | 87 | 68 | 28 | 60.6 | 36 | 46.7 | −6 | 103.6 | −9 | 87.1 | 84 | 73 | 32 | 67.9 | 53 | 46.6 | 
NC1=NN=C(N)C1/N=N/c1ccc(F)c(C(F)(F)F)c1 [4-[(4-fluoro-3-trifluoromethylphenyl)hydrazono]-4H-pyrazole-3,5-diamine] |  |  |  |  |  |  |  |  |  |  |  |  |  |  |  |  |  |  | inhibition at 25 µM ([1]; Mus musculus, Macrophage, 25 μM, 24 h, LPS (0.5 μg) IFN-γ (100 U)): 63%; INOS (%) (iNOS): 88%; COX-2 (%) (COX-2): 67%; NO (%) [8]: 74%
